# Measurements: paper PMC5923142, “Selection and Characterization of Rupintrivir-Resistant Norwalk Virus Replicon Cells In Vitro” (Antimicrobial Agents and Chemotherapy, 2018)
# Experiments:
# Norwalk virus replicon = Norwalk virus replicon RNA level in HGT-NV cells by qRT-PCR; assay type: cell-based, Human norovirus (HuNoV) GI
# Method: A human gastric tumor-1 (HGT-1) cell line ([29]) was used to establish a human norovirus replicon-harboring HGT (HGT-NV) cell line. In brief, viral protein genome (VPg)-linked RNA was isolated from BHK cells containing the Norwalk virus GI replicon and transfected into HGT-1 cells. HGT-NV replicon cells were selected in G418 (1 mg/ml), and limiting dilution was used to identify a clone with high viral RNA levels. The generated HGT-NV replicon cells were grown and maintained under G418 selection. The replicon-containing BHK cell line was generated by the transfection of in vitro-transcribed capped RNA from the cDNA construct of the Norwalk virus replicon ([9]), kindly provided by Kim Green (National Institutes of Health, Bethesda, MD, USA), into baby hamster kidney cells. Human embryonic kidney HEK293T cells were obtained from ATCC. The murine microglial BV-2 cell line was provided by Jennifer Pocock (University College London, London, UK). […]
# The inhibitory effect of rupintrivir on HuNoV replication was assessed by quantification of the levels of GI NuNoV RNA and β-actin RNA as the reference gene. […] The real-time quantitative reverse transcription-PCR (qRT-PCR) assay was performed by using a One-Step Plus qRT-PCR kit according to the protocol of the manufacturer (Primer Design). […] Relative quantification was performed using the 2^−ΔΔCT threshold cycle (CT) method ([38]). […]
# GV WT protease = molecular target: T1, GV WT protease (Norovirus, UniProt Q80J95); assay: Cell-based FRET assay, GV WT protease; design: species or system murine norovirus (MNV) GV (DQ285629); conditions: HEK293T cells, GV NS1/2-NS3 FRET substrate
# T1 construct: plasmids expressing norovirus protease from GI.1 (M87661), GII.4 (DQ658413), or GV (DQ285629) norovirus; expressed in transfected cells; host or cells: HEK293T
# T1 sequence (Q80J95 995-1177 limits assumed): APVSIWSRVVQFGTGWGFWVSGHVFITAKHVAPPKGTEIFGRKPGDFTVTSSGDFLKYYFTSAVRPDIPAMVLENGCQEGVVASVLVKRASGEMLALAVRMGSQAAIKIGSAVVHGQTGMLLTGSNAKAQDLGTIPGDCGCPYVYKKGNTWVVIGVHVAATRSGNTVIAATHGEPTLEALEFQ
# Excerpt: (§1) The generation of plasmids expressing norovirus protease from GI.1 (M87661), GII.4 (DQ658413), or GV (DQ285629) norovirus and FRET assay constructs has been described previously ([18]). The plasmids carrying GI, GII, and GV proteases with the A105V, I109V, or A105V/I109V mutation were generated from the wild-type (WT) protease constructs described above by the QuikChange site-directed mutagenesis method. Mutant MNV genomes for reverse genetics were generated by two-step PCR mutagenesis of the WT MNV genome (pT7 MNV 3RZ) construct as described previously ([27]). The primers used for generation of the plasmids are listed in Tables S1 and S2 in the supplemental material.
# (§2) The YFP/CFP ratio was used to determine FRET efficiency, as described previously ([18], [40]). Briefly, HEK293T cells were plated into black 96-well cell culture microplates (Greiner Bio-One) at a density of 5 × 10^4 cells/well in 100 μl of DMEM containing 10% fetal bovine serum with or without various concentrations of rupintrivir and then incubated for 4 h in a CO2 incubator at 37°C. […] The plates were then analyzed on a SpectraMax i3 instrument in fluorescence mode, with excitation set at 434 nm and the reading emissions set at 477 nm (CFP) and 527 nm (YFP). The background fluorescence from wells transfected with pcDNA3.1 was determined and subtracted. […]
# GI A105V mutant protease = molecular target: T2, GI A105V mutant protease (Norovirus, UniProt Q83883, A1205V); assay: Cell-based FRET assay, GI A105V protease; design: species or system norovirus GI.1 (M87661)
# T2 construct: plasmids expressing norovirus protease from GI.1 (M87661); expressed in transfected cells; host or cells: HEK293T
# Excerpt: as §1, §2
# GI I109V mutant protease = molecular target: T3, GI I109V mutant protease (Norovirus, UniProt Q83883, I1209V); assay: Cell-based FRET assay, GI I109V protease; design: species or system norovirus GI.1 (M87661)
# T3 construct: plasmids expressing norovirus protease from GI.1 (M87661); expressed in transfected cells; host or cells: HEK293T
# Excerpt: as §1, §2
# [1] = HEK293T cells, GI NS1/2-NS3 FRET substrate
# T2 sequence (Q83883 1101-1281 A1205V): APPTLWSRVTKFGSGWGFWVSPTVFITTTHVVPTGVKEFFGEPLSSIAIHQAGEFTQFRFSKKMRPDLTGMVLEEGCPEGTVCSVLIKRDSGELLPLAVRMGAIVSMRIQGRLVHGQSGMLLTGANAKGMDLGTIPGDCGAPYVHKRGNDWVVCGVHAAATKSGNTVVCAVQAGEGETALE
# T3 sequence (Q83883 1101-1281 I1209V): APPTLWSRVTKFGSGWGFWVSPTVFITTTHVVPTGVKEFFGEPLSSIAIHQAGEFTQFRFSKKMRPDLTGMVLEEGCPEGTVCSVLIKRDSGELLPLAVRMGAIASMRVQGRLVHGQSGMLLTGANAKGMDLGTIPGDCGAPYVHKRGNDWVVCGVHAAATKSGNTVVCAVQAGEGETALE
structure (smiles),measurement,setting,value
"CCOC(=O)/C=C/[C@H](C[C@@H]1CCNC1=O)NC(=O)[C@@H](CC(=O)[C@@H](NC(=O)c1cc(C)on1)C(C)C)Cc1ccc(F)cc1 [rupintrivir, Rupintrivir]",selectivity index (CC50/EC50),Norwalk virus replicon; HGT-NV cells,> 77
same,EC50,"Norwalk virus replicon; Norwalk virus, 72 h, read-out: 50% effective concentration (EC50), replicon RNA",1300 ± 100 nM
same,IC50,GV WT protease,1000 ± 100 nM
same,IC50,GI A105V mutant protease; [1],4200 ± 1100 nM
same,fold increase in IC50,GI A105V mutant protease; vs GI WT protease,3.2 fold
same,IC50,GI I109V mutant protease; [1],4000 ± 400 nM
same,fold increase in IC50,GI I109V mutant protease; vs GI WT protease,3.1 fold
